Literature values as cited in patent US20080274188A1, “Oral Vehicle For Systemic Pharmaceuticals” (priority 2005, published 2008).
Where two headings read alike, the source gives them in different places.

Conditions: for Solubility water: words

COc1ccc2c3c1O[C@H]1[C@@H](O)C=C[C@H]4[C@@H](C2)N(C)CC[C@@]341 [Codeine phosphate]
Solubility water (ml of water for 1 g) (temperature not stated, 1 g in the stated ml): 1 g in 2.5 ml water.

CC(=O)Nc1ccc(O)cc1 [Acetaminophen]
Solubility water (cold water): Cold-v slight
Solubility water (hot water): Hot-considerably more

Cc1onc(-c2ccccc2Cl)c1C(=O)N[C@@H]1C(=O)N2[C@@H]1SC(C)(C)[C@@H]2C(=O)O [Cloxacillin, Cloxacillin (Na monohydrate)]
Solubility water (temperature not stated): soluble

C1CNCCN1 [Piperazine]
Solubility water (temperature not stated): Freely soluble
